US20040127569A1, “Methods for treatment and prevention of gastrointestinal conditions” (priority 2002, published 2004)
Counter-ions that a name gives are not always drawn. Like-named read-outs stand apart in the source and are kept apart here.

Tests used:
[1] = target: i-NOS (Homo sapiens, UniProt P35228); assay: i-NOS inhibition, comparison with NIL amides; type: biochemical
[2] = system: Human Cartilage; assay: Human cartilage explant assay (nitrite production, IL-1β induced); type: cell-based; conditions: inhibition of nitrite production, IL-1β stimulated explants
Method: Human Cartilage Explant Assay
Bone pieces are rinsed twice with Dulbecco's Phosphate Buffered Saline (GibcoBRL) and once with Dulbecco's Modified Eagles Medium (GibcoBRL) and placed into a petri dish with phenol red free Minimum Essential Medium (MEM) (GibcoBRL). Cartilage was cut into small explants of approximately 15-45 mg in weight and one or two explants per well are placed into either 96 or 48 well culture plates with 200-500 μL of culture media per well. The culture media was either a custom modification of Minimum Essential Medium(Eagle) with Earle's salts (GibcoBRL) prepared without L-Arginine, without L-Glutamine and without phenol red or a custom modification of serumless Neuman and Tytell (GibcoBRL) medium prepared without L-arginine, without insulin, without ascorbic acid, without L-glutamine and without phenol red. Both are supplemented before use with 100 μM L-Arginine (Sigma), 2 mM L-glutamine, 1×HL-1 supplement (BioWhittaker), […] ascorbic acid (Sigma) and 150 pg/ml recombinant human IL-1β (RD Systems) to induce nitric oxide synthase. Compounds are then added in 10 μL aliquots and the explants incubated at 37° C. with 5% CO2 for 18-24 hours. The day old supernatant is then discarded and replaced with fresh culture media containing recombinant human IL-1β and compound and incubated for another 20-24 hours. […] All samples are done in quadruplicate. Unstimulated controls are cultured in media in the absence of recombinant human IL-1β. IC50 values (Table I) are determined from plotting the percent inhibition of nitrite production at six different concentrations of inhibitor.

[3] = system: LPS-induced increase in plasma nitrite/nitrate levels; assay: In vivo assay: endotoxin-treated rats, plasma nitrite/nitrate; set-up: species or system rat; conditions: oral administration, plasma nitrite/nitrate 5 hours post-treatment
Method: Plasma nitrite/nitrate levels can be determined 5 hours post-treatment.

[4] = target: T1, hiNOS (Homo sapiens, UniProt P35228); assay: Assay for time dependent inhibition, hiNOS; type: biochemical; conditions: 60 min preincubation
T1 construct: made in house; host or cells: Sf9 insect cells (baculovirus vector)
Method: Assay for Time Dependent Inhibition
Aliquots (10 μL) are removed at 0, 10, 21 and 60 minutes and immediately added to a citrulline assay enzyme reaction mixture containing L-[2,3-^3H]-arginine and a final L-arginine concentration of 30 μM in a final volume of 100 μL. The reaction is allowed to proceed for 15 minutes at 37° C. and terminated by addition of stop buffer and chromatography with Dowex 50W X-8 cation exchange ion exchange resin as described for the citrulline NOS assay. The % inhibition of NOS activity by an inhibitor was taken as the percent inhibition in activity compared to control enzyme preincubated for the same time in the absence of inhibitor.

[5] = Rattus norvegicus, read-out: ED50

Sequence of i-NOS (P35228 whole entry): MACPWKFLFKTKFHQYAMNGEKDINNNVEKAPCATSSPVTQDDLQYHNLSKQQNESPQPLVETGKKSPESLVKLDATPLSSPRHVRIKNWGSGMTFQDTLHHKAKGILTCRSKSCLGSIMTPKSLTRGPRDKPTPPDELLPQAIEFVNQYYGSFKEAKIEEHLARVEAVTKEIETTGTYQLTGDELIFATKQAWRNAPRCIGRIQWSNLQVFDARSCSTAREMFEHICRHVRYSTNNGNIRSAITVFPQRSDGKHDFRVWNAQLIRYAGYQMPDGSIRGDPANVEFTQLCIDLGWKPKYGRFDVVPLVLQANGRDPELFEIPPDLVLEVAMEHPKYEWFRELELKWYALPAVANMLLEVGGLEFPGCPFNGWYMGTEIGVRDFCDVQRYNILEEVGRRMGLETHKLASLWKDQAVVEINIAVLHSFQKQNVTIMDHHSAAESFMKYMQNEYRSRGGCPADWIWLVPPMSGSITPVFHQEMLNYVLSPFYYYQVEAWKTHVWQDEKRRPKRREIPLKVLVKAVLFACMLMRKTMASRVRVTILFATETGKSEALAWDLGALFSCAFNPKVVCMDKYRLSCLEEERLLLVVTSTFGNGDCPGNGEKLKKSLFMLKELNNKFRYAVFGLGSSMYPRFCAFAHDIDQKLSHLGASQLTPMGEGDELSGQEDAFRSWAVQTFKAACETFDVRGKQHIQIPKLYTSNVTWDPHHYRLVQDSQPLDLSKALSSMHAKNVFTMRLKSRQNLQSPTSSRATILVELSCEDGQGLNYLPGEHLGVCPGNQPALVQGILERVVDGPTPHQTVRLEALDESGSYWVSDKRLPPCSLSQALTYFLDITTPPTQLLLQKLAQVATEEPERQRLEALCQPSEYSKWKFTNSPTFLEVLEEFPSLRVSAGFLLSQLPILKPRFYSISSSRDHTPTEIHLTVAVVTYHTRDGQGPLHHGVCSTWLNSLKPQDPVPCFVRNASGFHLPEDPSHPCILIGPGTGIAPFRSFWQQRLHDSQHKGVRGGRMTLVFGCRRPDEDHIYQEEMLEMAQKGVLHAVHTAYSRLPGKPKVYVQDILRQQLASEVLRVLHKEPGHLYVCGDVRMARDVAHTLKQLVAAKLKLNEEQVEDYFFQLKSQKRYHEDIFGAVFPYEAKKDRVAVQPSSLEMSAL

Compound | IC50 ([2]; Homo sapiens) | ED50 [3, 5] | other results
2S-amino-6-[(1-iminoethyl)amino]-N-(1H-tetrazol-5-yl)hexanamide, hydrate, dihydrochloride [Example 1] |  |  | i-NOS selectivity relative to NIL amide or NIL dimethylamide ([1]; compared with NIL amide or NIL dimethylamide): more selective
CC(=N)NCC(F)=CCC[C@H](N)C(=O)O (mixture of isomers) [Example B, (2S,5E/Z)-2-amino-6-fluoro-7-[(1-iminoethyl)amino]-5-heptenoic acid, dihydrochloride] | 200 nM |  | 
CC(=N)NC/C(F)=C\CC[C@H](N)C(=O)O [Example A, (2S,5E)-2-amino-6-fluoro-7-[(1-iminoethyl)amino]-5-heptenoic acid, dihydrochloride, monohydrate] | 100 nM | < 0.1 mg/kg | ED50 ([3]; dihydrochloride, monohydrate): <0.1 mg/kg
CC(=N)NC/C(F)=C/CC[C@H](N)C(=O)O [Example D, (2S,5Z)-2-amino-6-fluoro-7-[(1-iminoethyl)amino]-5-heptenoic acid, trihydrochloride, dihydrate] | 2500 nM | > 10 mg/kg | 
CC(=NO)NC/C(F)=C\CC[C@H](N)C(=O)O [Example G, (2S,5E)-2-amino-6-fluoro-7-[(1-hydroximinoethyl)amino]-5-heptenoic acid] |  | < 0.1 mg/kg | melting point: 198 to 200 °C
CC(=N)NC/C(F)=C\CC[C@H](N)C(=O)Nc1nnn[nH]1 [Example H, (2S,5E)-2-amino-6-fluoro-7-[(1-iminoethyl)amino]-N-(1H-tetrazol-5-yl) 5-heptenamide, dihydrochloride] |  | < 0.3 mg/kg | 
CC(=N)NC/C(F)=C\CC[C@](C)(N)C(=O)O.Cl.Cl [Example HH, (2S,5E)-2-amino-2-methyl-6-fluoro-7-[(1-iminoethyl)amino]-5-heptenoic acid, dihydrochloride] | 400 nM | 0.4 mg/kg | 
COC[C@](N)(CSCCNC(C)=N)C(=O)O [Example J, 2-[[[2-[(1-Iminoethyl)amino]ethyl]thio]methyl]-O-methyl-D-serine, dihydrochloride] |  |  | IC50 [2]: 8200 nM
CC(=N)NC/C=C\CC[C@](C)(N)C(=O)O [Example LL, (2S,5Z)-7-acetimidoylamino-2-amino-2-methyl-hept-5-enoic acid] | 800 nM | 0.3 mg/kg | 
CC(=N)NCCCC[C@H](N)C(=O)Nc1nnn[nH]1 [Example NN, 2S-amino-6-[(1-iminoethyl)amino]-N-(1H-tetrazol-5-yl)hexanamide, hydrate, dihydrochloride] |  |  | i-NOS inhibitor potency relative to NIL amide or NIL dimethylamide ([1]; compared with 2S-amino-6-[(1-iminoethyl)amino]hexanamide (NIL amide) or NIL dimethylamide): more potent
Cl.N=C1CCCC[C@H](CCCC[C@@H](N)C(=O)O)N1.O.O.O [Example V, (αR,2S)-α-aminohexahydro-7-imino-1H-azepine-2-hexanoic acid, trihydrate hydrochloride] | < 10000 nM | < 3 mg/kg | 
Cl.N=C1CCCC[C@@H](CCCC[C@H](N)C(=O)O)N1.O.O.O [Example W, (αS,2R)-α-aminohexahydro-7-imino-1H-azepine-2-hexanoic acid, trihydrate hydrochloride] | > 30000 nM | > 10 mg/kg | 
N=C1CCCC[C@H](CCCC[C@H](N)C(=O)O)N1 [Example X, (αS,2S)-α-aminohexahydro-7-imino-1H-azepine-2-hexanoic acid, trihydrate hydrochloride] |  |  | IC50 [2]: < 10000 nM
N=C1CCCC[C@H](CCCC[C@H](N)C(=O)O)N1 [Example Z, (αS,2S)-α-aminohexahydro-7-imino-1H-azepine-2-hexanoic acid, trihydrate hydrochloride] | < 10000 nM |  | inhibition at 22 µM [4]: 85%
